Assay [1] deals with influenza viruses that have HA subtypes H1 and H2. The settings on record: cited from earlier work.
For assay [2], the system named is influenza viruses that have HA subtype H3. The conditions noted are these: cited from earlier work.
The next assay concerns A/Udorn/72 (H3N2) virus. The experiment in a line: Plaque assay in MDCK cells: EC50 by reduction of plaque number. It is filed as cell-based, influenza virus. The conditions noted are these: MDCK.
The test system of the next assay is pseudoHIV particles. Description: HIV pseudovirus assay in X4 cells (luciferase). It is filed as cell-based, HIV-1. The settings on record: Human immunodeficiency virus 1, read-out: HIV EC50. The protocol: A plasmid coding the HIV-1 genome, deleting the envelope protein gene and with a luciferase gene inserted, and a plasmid coding the envelope protein gene were cotransfected into 293T cells. After 48 hr, the supernatant containing pseudoHlV particles was collected for transducing assay. In 96 well plates, X4 cells were plated and incubated till confluent. The pseudoHlV particles were incubated with various concentrations of inhibitor compounds for one hour in room temperature. The particles were then used for tranducing X4 cells. The transduced X4 cells were lysed after 48 hr and the luciferase activity was measured in a luminometer.

Another assay concerns influenza virus. The conditions noted are these: cited from earlier work.
A further assay relates to H1 and H2 viruses. The settings on record: cited from earlier work.
The subject of the next assay is H3 viruses. The conditions noted are these: cited from earlier work.

As to `C[C@@H]1CCC[C@@H]2C[C@@H](NC(=O)c3cc(Cl)c(N)cc3O)CCN21` [BMY-27709], the concentration giving a half-maximal response (EC50) in assay [1] is 6000 to 8000 nM. Besides, the “activity against H3” value in assay [2] is recorded as “not H3”.
For the molecule `COc1cc(O)cc(-c2cc(CCCO)c(/C=C3\SC(=S)N(C4C5CC6CC(C5)CC4C6)C3=O)o2)c1` (centres unmarked) [Compound 102], the concentration giving a half-maximal response (EC50) in the assay with A/Udorn/72 (H3N2) virus and in the assay with pseudoHIV particles was < 100 nM each time.
Regarding `O=C1/C(=C/c2oc(-c3ccc(F)cc3)cc2CCCO)SC(=S)N1C1C2CC3CC(C2)CC1C3` (centres unmarked) [Compound 103], the EC50 in the assay with A/Udorn/72 (H3N2) virus and in the assay on pseudoHIV particles was < 100 nM each time.
Consider `O=C1/C(=C/c2oc(-c3ccc(F)cc3)cc2CCCO)SC(=S)N1C1CC2CCC1C2` (centres unmarked) [Compound 104], for which the concentration giving a half-maximal response (EC50) with A/Udorn/72 (H3N2) virus and in the assay with pseudoHIV particles was < 100 nM each time.
Consider `COc1cc(OC)cc(-c2cc(CCCCO)c(/C=C3\SC(=S)N(C4CC5CCC4C5)C3=O)o2)c1` (centres unmarked) [Compound 113], for which the concentration for a half-maximal effect (EC50) in the assay with A/Udorn/72 (H3N2) virus and with pseudoHIV particles was < 100 nM throughout.
For the molecule `COc1cc(OC)cc(-c2cc(CCCCO)c(/C=C3\SC(=S)N(C4C5CC6CC(C5)CC4C6)C3=O)o2)c1` (centres unmarked) [Compound 114], the concentration for a half-maximal effect (EC50) with A/Udorn/72 (H3N2) virus and with pseudoHIV particles was < 100 nM in each case.
Turning to `COc1cc(OC)cc(-c2cc(CCCN)c(/C=C3\SC(=S)N(C4CC5CCC4C5)C3=O)o2)c1` (centres unmarked) [Compound 120], the EC50 in the assay on A/Udorn/72 (H3N2) virus and in the assay with pseudoHIV particles was < 100 nM in each case.
In the case of `COc1cc(OC)cc(-c2cc(CCCN)c(/C=C3\SC(=S)N(C4C5CC6CC(C5)CC4C6)C3=O)o2)c1` (centres unmarked) [Compound 121], the EC50 with A/Udorn/72 (H3N2) virus and in the assay on pseudoHIV particles was < 100 nM each time.
Regarding `COc1cc(O)cc(-c2cc(CCCN)c(/C=C3\SC(=S)N(C4CC5CCC4C5)C3=O)o2)c1` (centres unmarked) [Compound 122], the EC50 with A/Udorn/72 (H3N2) virus and in the assay on pseudoHIV particles was < 100 nM each time.
Consider `COc1cc(O)cc(-c2cc(CCCN)c(/C=C3\SC(=S)N(C4C5CC6CC(C5)CC4C6)C3=O)o2)c1` (centres unmarked) [Compound 123], for which the 50% effective concentration (EC50) in the assay with A/Udorn/72 (H3N2) virus and with pseudoHIV particles was < 100 nM throughout.
As to `NCCCc1cc(-c2ccc(Cl)cc2)oc1/C=C1\SC(=S)N(C2CC3CCC2C3)C1=O` (centres unmarked) [Compound 124], the 50% effective concentration (EC50) with A/Udorn/72 (H3N2) virus and with pseudoHIV particles was < 100 nM in each case.
`NCCCc1cc(-c2ccc(Cl)cc2)oc1/C=C1\SC(=S)N(C2C3CC4CC(C3)CC2C4)C1=O` (centres unmarked) [Compound 125]: the EC50 in the assay on A/Udorn/72 (H3N2) virus and with pseudoHIV particles was < 100 nM each time.
Regarding `COc1cc(OC)cc(-c2cc(CCC(=O)O)c(/C=C3\SC(=S)N(C4C5CC6CC(C5)CC4C6)C3=O)o2)c1` (centres unmarked) [Compound 129], the EC50 in the assay with A/Udorn/72 (H3N2) virus and with pseudoHIV particles was < 100 nM in each case.
Take `COc1cc(OC)cc(-c2cc(/C=C/C(=O)O)c(/C=C3\SC(=S)N(C4CC5CCC4C5)C3=O)o2)c1` (centres unmarked) [Compound 130]: the half-maximal effective concentration (EC50) in the assay with A/Udorn/72 (H3N2) virus and with pseudoHIV particles was < 100 nM each time.
In the case of `COc1cc(OC)cc(-c2cc(CCCOC(=O)[C@H](CC(N)=O)NC(=O)OC(C)(C)C)c(/C=C3\SC(=S)N(C4CC5CCC4C5)C3=O)o2)c1` (some centres unmarked) [Compound 138], the EC50 in the assay on A/Udorn/72 (H3N2) virus and in the assay with pseudoHIV particles was < 100 nM each time.
Regarding `COc1cc(OC)cc(-c2cc(CCCOC(=O)[C@@H](N)Cc3ccc(O)cc3)c(/C=C3\SC(=S)N(C4CC5CCC4C5)C3=O)o2)c1` (some centres unmarked) [Compound 151], the EC50 with A/Udorn/72 (H3N2) virus and with pseudoHIV particles was < 100 nM throughout.
With `COc1cc(OC)cc(-c2cc(CCCNC(=O)[C@H](CC(N)=O)NC(=O)OC(C)(C)C)c(/C=C3\SC(=S)N(C4CC5CCC4C5)C3=O)o2)c1` (some centres unmarked) [Compound 156], the concentration giving a half-maximal response (EC50) with A/Udorn/72 (H3N2) virus and in the assay on pseudoHIV particles was < 100 nM each time.
Regarding `COc1cc(OC)cc(-c2cc(CCCNC(=O)[C@H](Cc3ccccc3)NC(=O)OC(C)(C)C)c(/C=C3\SC(=S)N(C4CC5CCC4C5)C3=O)o2)c1` (some centres unmarked) [Compound 157], the EC50 with A/Udorn/72 (H3N2) virus and with pseudoHIV particles was < 100 nM each time.
Regarding `COc1cc(OC)cc(-c2cc(CCCNC(=O)[C@@H](N)Cc3ccc(O)cc3)c(/C=C3\SC(=S)N(C4CC5CCC4C5)C3=O)o2)c1` (some centres unmarked) [Compound 167], the EC50 with A/Udorn/72 (H3N2) virus and with pseudoHIV particles was < 100 nM in each case.
`COc1cc(OC)cc(-c2cc(CCCNC(=O)[C@@H](N)CC(N)=O)c(/C=C3\SC(=S)N(C4CC5CCC4C5)C3=O)o2)c1` (some centres unmarked) [Compound 168]: the EC50 in the assay on A/Udorn/72 (H3N2) virus and with pseudoHIV particles was < 100 nM in each case.
On to `COc1cc(OC)cc(-c2cc(CCCNC(=O)[C@@H](N)c3ccccc3)c(/C=C3\SC(=S)N(C4CC5CCC4C5)C3=O)o2)c1` (some centres unmarked) [Compound 170], for which the EC50 in the assay with A/Udorn/72 (H3N2) virus and with pseudoHIV particles was < 100 nM each time.
`COc1cc(OC)cc(-c2cc(CCCNC(=O)[C@@H](N)Cc3ccccc3)c(/C=C3\SC(=S)N(C4CC5CCC4C5)C3=O)o2)c1` (some centres unmarked) [Compound 171]: the EC50 in the assay with A/Udorn/72 (H3N2) virus and with pseudoHIV particles was < 100 nM throughout.
On to `COc1cc(O)cc(-c2cc(CCCNC(=O)[C@@H](N)CC(N)=O)c(/C=C3\SC(=S)N(C4CC5CCC4C5)C3=O)o2)c1` (some centres unmarked) [Compound 174], for which the EC50 in the assay with A/Udorn/72 (H3N2) virus and in the assay on pseudoHIV particles was < 100 nM each time.
With `O=C1/C(=C/c2oc(-c3ccc(Cl)cc3)cc2CCCN2CCNCC2)SC(=S)N1C1CC2CCC1C2` (centres unmarked) [Compound 186], the EC50 in the assay with A/Udorn/72 (H3N2) virus and in the assay on pseudoHIV particles was < 100 nM throughout.
As to `COc1cc(O)cc(-c2cc(CCCNC(=N)N)c(/C=C3\SC(=S)N(C4CC5CCC4C5)C3=O)o2)c1` (centres unmarked) [Compound 194], the EC50 in the assay on A/Udorn/72 (H3N2) virus and with pseudoHIV particles was < 100 nM in each case.
As to `COc1cc(OC)cc(-c2cc(CCCNC(=N)N)c(/C=C3\SC(=S)N(C4CC5CCC4C5)C3=O)o2)c1` (centres unmarked) [Compound 195], the concentration giving a half-maximal response (EC50) in the assay on A/Udorn/72 (H3N2) virus and in the assay on pseudoHIV particles was < 100 nM in each case.
With `COc1cc(OC)cc(-c2cc(CCCn3nnc(CO)c3CO)c(/C=C3\SC(=S)N(C4CC5CCC4C5)C3=O)o2)c1` (centres unmarked) [Compound 200, (Z)-3-(bicyclo[2.2.1]heptan-2-yl)-5-((3-(3-(4′,5′-bis(hydroxymethyl)-1H-1′,2′,3′-triazol-1-yl)propyl)-5-(3′,5′-dimethoxyphenyl)furan-2-yl)methylene)-2-thioxothiazolidin-4-one], the EC50 in the assay on A/Udorn/72 (H3N2) virus and in the assay on pseudoHIV particles was < 100 nM throughout.
On to `COc1cc(OC)cc(-c2cc(CCCn3nnc(CO)c3CO)c(/C=C3\SC(=S)N(C4C5CC6CC(C5)CC4C6)C3=O)o2)c1` (centres unmarked) [Compound 201, (Z)-3-(adamantan-2-yl)-5-((3-(3-(4′,5′-bis(hydroxymethyl)-1H-1′,2′,3′-triazol-1-yl)propyl)-5-(3′,5′-dimetho-xyphenyl)furan-2-yl)methylene)-2-thioxothiazolidin-4-one], for which the EC50 with A/Udorn/72 (H3N2) virus and in the assay with pseudoHIV particles was < 100 nM throughout.
Take `OC(CCN1CCCCC1)(c1ccccc1)C1C2CC3C(C2)C31` (centres unmarked) [Triperiden]: in the assay on influenza virus, the “concentration inhibiting influenza virus replication” value was 20 µg/mL.
Take Stachyflin: the EC50 result with H1 and H2 viruses is listed as “μM range”. The “activity against H3 viruses” value with H3 viruses was “not H3”.
